Bridge positions count the residues as written; N and C are the ends. Square brackets hold non-standard residues; d marks the D form. Ends that are not written are not given here. S5 = C=CCCC[C@](C)(N)C(=O)O

Experimental findings from patent publication US12570698B2, “Stabilized peptides for covalent binding to target protein” (Dana-Farber Cancer Institute, Inc., priority 2015, dated 2026) are described below.

One data set has as its system A375P cells. Kind of data set: Cell viability (CellTiter-Glo). Type of data set: cell-based, human. To be noted: 40 μM, over time. Here is the method:
We confirmed by LDH release assay that BIM SAHBs had no membranolytic effect on the cells (FIG. 16B). The observed cytotoxicity was instead consistent with mitochondrial apoptosis induction, as reflected by time-responsive caspase 3/7 activation (FIG. 16C) and mitochondrial cytochrome c release (FIG. 16D).
(§1) Cell Viability, LDH Release, and Caspase-3/7 Activation Assays: Cancer cells were cultured using their standard culture media containing 10% FBS and penicillin/streptomycin (A375P: DMEM; SK-MEL-2, SK-MEL-28 and MCF-7: EMEM; A549, H929: RPMI). […] Cell viability and caspase 3/7 activation was measured using CellTiter-Glo and Caspase-Glo 3/7 chemiluminescence reagents (Promega), respectively, and luminescence detected by a microplate reader (Spectramax M5, Molecular Devices). LDH release was quantified after 30 min peptide incubation by plate centrifugation at 1500 rpm for 5 min at 4° C., transfer of 100 μL cell culture media to a clear plate (Corning), incubation with 100 μL LDH reagent (Roche) for 30 min while shaking, and measurement of absorbance at 490 nm on a Spectramax M5 microplate reader.
On the technique in general: In ATP-based viability assays light output follows the ATP content of the culture.

In another data set the test system is A549. Kind of data set: Cytotoxicity and caspase 3/7 activation. To be noted: non-melanoma line; data not shown. Type of data set: cell-based. Here is the method: as §1
A further data set deals with H929. Kind of data set: Cytotoxicity and caspase 3/7 activation. To be noted: non-melanoma line; data not shown. Type of data set: cell-based. Here is the method:
as §1

A further data set concerns MCF7. In words: Cytotoxicity and caspase 3/7 activation. The format is cell-based. To be noted: non-melanoma line; data not shown. As to the method:
as §1

The next data set has as its system SK-MEL-28. Kind of data set: Cytotoxicity and caspase 3/7 activation. To be noted: BFL-1 expressing melanoma line; data not shown. Type of data set: cell-based. As to the method: as §1
In the next data set the test system is SK-MEL-2. Kind of data set: Cytotoxicity and caspase 3/7 activation. The format is cell-based. To be noted: BFL-1 expressing melanoma line; data not shown. Here is the method: as §1
The target in data set [1] is T1, Bfl-1 (Homo sapiens, UniProt Q16548).
T1 sequence (Q16548 1-175): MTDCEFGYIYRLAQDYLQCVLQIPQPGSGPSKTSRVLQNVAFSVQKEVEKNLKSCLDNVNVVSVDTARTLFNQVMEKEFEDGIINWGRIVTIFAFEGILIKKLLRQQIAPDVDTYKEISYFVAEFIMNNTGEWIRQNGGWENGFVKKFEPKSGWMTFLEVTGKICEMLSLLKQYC
In words: Bfl-1: Warhead SAHB conjugation assay. The format is binding. To be noted: warhead SAHBs, reducing conditions. As to the method:
Various warhead SAHBs were tested in conjugation assays with Bfl-1. For this series of peptides the warhead at position J was selected from those depicted below.
10 μM Bfl-1 was reduced with DTT, then incubated with 3:1 molar ratio of warhead SAHB. Samples were then combined with loading dye, run on a 12% Bis-Tris SDS-PAGE, and stained with Coomassie. The same setup was used for all antiapoptotic proteins tested.

Another data set concerns the target T2, HA-BFL-1ΔC C4S/C19S (Homo sapiens, UniProt Q16548, C19S/C4S).
T2 construct: BFL-1ΔC (aa 1-153); expressed in transfected cells; host or cells: 293T cells, pCMV plasmid, transient
T2 sequence (Q16548 1-153 C4S/C19S): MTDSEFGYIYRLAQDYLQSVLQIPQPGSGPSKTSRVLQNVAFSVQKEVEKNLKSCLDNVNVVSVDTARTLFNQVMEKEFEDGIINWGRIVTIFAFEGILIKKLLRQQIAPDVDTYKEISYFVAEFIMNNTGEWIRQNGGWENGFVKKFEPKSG
Kind of data set: Competition with tBID in 293T lysates (immunoprecipitation). Type of data set: binding. To be noted: 5 μM biotinylated peptide, 0.25 μM tBID, 6 h RT. Here is the method:
Protein concentration of the soluble fraction was measured using a BCA kit according to manufacturer's instructions (Thermo Scientific). […] After 24 h, cells were trypsinized, washed with PBS, lysed in 1% CHAPS buffer, and the supernatant collected for protein concentration determination by BCA kit. […] Cells were harvested and lysed as above, and incubated overnight with anti-HA agarose beads (Pierce). The beads were washed 3 times with lysis buffer, eluted by boiling in LDS buffer, and subjected to western analysis with HA and biotin antibodies. […] Biotin capture was accomplished by incubating the mixture with high-capacity SA agarose (Thermo Scientific) for 2 h at 4° C., followed by centrifugation and washing the pelleted beads with 3×1 mL lysis buffer.

For another data set, the target named is T3, FLAG-MCL-1 (Homo sapiens, UniProt Q07820).
T3 construct: expressed in transfected cells; host or cells: 293T cells, p3×FLAG-CMV-10 vector, transient
T3 sequence (Q07820 whole entry): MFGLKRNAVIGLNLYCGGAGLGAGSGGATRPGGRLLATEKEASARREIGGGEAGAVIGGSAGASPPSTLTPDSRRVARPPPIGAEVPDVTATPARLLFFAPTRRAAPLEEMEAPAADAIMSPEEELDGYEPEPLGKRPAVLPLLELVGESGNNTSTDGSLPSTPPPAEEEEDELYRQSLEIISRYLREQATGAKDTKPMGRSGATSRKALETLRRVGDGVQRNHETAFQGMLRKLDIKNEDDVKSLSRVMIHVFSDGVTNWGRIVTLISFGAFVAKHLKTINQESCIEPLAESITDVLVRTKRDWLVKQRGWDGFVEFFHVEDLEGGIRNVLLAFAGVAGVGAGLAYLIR
The description is as above. To be noted: 5 μM biotinylated peptide, 0.25 μM tBID, 6 h RT. The format is binding. Here is the method:
293T cells were maintained in DMEM containing 10% FBS and penicillin/streptomycin, and transfections performed with 2 μg pCMV plasmid containing HA-BFL-1ΔC C4S/C19S using X-tremeGENE 9 (Roche). For lysate experiments, cells were trypsinized 24 hours post-transfection, washed with PBS, and lysed by incubation with 1% CHAPS lysis buffer (150 mM NaCl, 50 mM Tris pH 7.4, 100 mM DTT). Protein concentration of the soluble fraction was measured using a BCA kit according to manufacturer's instructions (Thermo Scientific). […] Samples were then boiled in LDS buffer and subjected to western analysis using 1:1000 dilutions of HA (Sigma-Aldrich, #12CA5) and biotin (Abcam, #53494) antibodies. To evaluate the capacity of biotinylated SAHBs to compete with tBID for interactions with BFL-1 and MCL-1, 293T cells were transfected with either HA-BFL-1ΔC C4S/C19S or FLAG-MCL-1 in the p3×FLAG-CMV-10 vector (Sigma) as above. After 24 h, cells were trypsinized, washed with PBS, lysed in 1% CHAPS buffer, and the supernatant collected for protein concentration determination by BCA kit. […] The mixtures were then subjected to HA or FLAG (Sigma-Aldrich, F7425) immunoprecipitation, followed by western analysis using 1:1000 dilutions of HA, FLAG, biotin, and BID (Santa Cruz sc-11423) antibodies. […] Cells were harvested and lysed as above, and incubated overnight with anti-HA agarose beads (Pierce). […]

The target of another data set is T4, MCL-1 (Homo sapiens, UniProt Q07820).
T4 construct: we incubated A375P lysates with the corresponding biotinylated BIM SAHBs; endogenous in cells; host or cells: A375P melanoma cell lysate
Kind of data set: SA pull-down from A375P lysates, MCL-1 western. To be noted: biotinylated SAHBs. Type of data set: binding.

The target of data set [2] is T1, Bfl-1. In words: Competitive binding assay after pre-forming the Bfl-1:NOXA disulfide bond. To be noted: Bfl-1:NOXA disulfide bond pre-formed. Here is the method: The functional impact of the Bfl-1:NOXA disulfide bond formation was evaluated using competitive binding assays and liposomal release assays.

Regarding `C=CC(=O)N1CCC[C@@H](C(=O)N[C@H](C(=O)N[C@@H](C)C(=O)N[C@@H](CCC(N)=O)C(=O)N[C@@H](CCC(=O)O)C(=O)N[C@@H](CC(C)C)C(=O)N[C@@H](CCCNC(=N)N)C(=O)N[C@@]2(C)CCCC=CCCC[C@@](C)(C(=O)N[C@@H](Cc3ccccc3)C(=O)N[C@@H](CC(N)=O)C(=O)N[C@@H](C)C(=O)N[C@@H](Cc3ccc(O)cc3)C(=O)N[C@@H](Cc3ccc(O)cc3)C(=O)N[C@@H](C)C(=O)N[C@@H](CCCNC(=N)N)C(=O)N[C@@H](CCCNC(=N)N)C(N)=O)NC(=O)[C@H](CC(=O)O)NC(=O)CNC(=O)[C@H]([C@@H](C)CC)NC2=O)[C@@H](C)CC)C1` [BIM SAHBA-3], in the data set with A375P cells, the “cytotoxicity compared to BIM SAHBA1” value is recorded as “significant enhancement in cytotoxicity over time”. For the same compound, the “enhancement in cytotoxicity and caspase 3/7 activation” value with A549 was “no evidence of this phenomenon”; in the data set on H929, “no evidence of this phenomenon”; in the data set with MCF7, “no evidence of this phenomenon”; in the data set with SK-MEL-28, “comparative enhancement in cytotoxicity and caspase 3/7 activation”; in the data set on SK-MEL-2 it was “comparative enhancement in cytotoxicity and caspase 3/7 activation”.

As to `O=C(O)[C@H]1CCCCN1` [D-homoproline], the covalent binding efficiency entry at Bfl-1 [1] is given as “less efficient”.

As for `O=C(O)[C@@H]1CCCCN1` [L-homoproline], the covalent binding efficiency result at Bfl-1 [1] is “less efficient”.

Take `CN(C)C/C=C/C(=O)O` [trans-4-dimethylaminocrotonic acid]: the covalent binding efficiency entry at Bfl-1 [1] is “less efficient”.

As to “BIM SAHBA: BIM SAHBA (aa 147-166), corresponding construct lacking the acrylamide-based warhead”, the “competition with tBID for HA-BFL-1 binding” value with HA-BFL-1ΔC C4S/C19S is “incapable of competing with tBID for HA-BFL-1 binding”. Moreover, the “competition with tBID for FLAG-MCL-1” value with FLAG-MCL-1 is “equally effective at competing with tBID”. Besides, the “binding to MCL-1” value in the data set with MCL-1 is “equivalent binding to anti-apoptotic MCL-1”.

As for “NOXA SAHBA C25S: NOXA SAHBA with C25S mutation; SEQ ID NO: 128 (AELEVESATQLR[S5]FGD[S5]LNFRQKLL; staple 13-17; not fully specified)”, in the data set with Bfl-1 [2], the “availability of the Bfl-1 binding pocket to another FITC BH3 domain” value is reported as “abrogated these inhibitory effects”.
